In patent US20250263370A1 (Tay Therapeutics Limited, priority 2022, published 2025):
“Also recorded” adds a separate entry of the source. Where two headings read alike, the source gives them in different places.

What was measured:
[1] = target: BRD4 BD1 (Homo sapiens (Human), UniProt O60885); experiment: NanoBRET bromodomain assay, NanoLuc-BRD4-BD1 fusion in HEK293 cells; assay type: cell-based; conditions: top concentration 10 μM
Procedure: HEK293 cells were transfected using NanoLuc-BRD4-BD1 or NanoLuc-BRD4-BD2 fusion vectors and incubated at 37° C. in an atmosphere of 5% CO2 for 20-24 hours. The transfected cells were then dispensed into 96-well plates using 90 μl cell suspension per well containing 2×10^5 cells/mL in Opti-MEM and 1× final concentration of tracer. 90 μL per well of cell suspension without tracer was also dispensed into at least 3 wells as “No tracer control samples” for background correction. Serially diluted test compounds were prepared at 1000× concentration in DMSO and further diluted to 10× concentration in Opti-MEM. […] Plates were then incubated at 37° C. +5% 002 incubator for 2 hours. […] Donor emission (450 nm) and acceptor emission (610 nm) were measured using PHERAstar (BMG LabTech). For data analysis, the raw BRET ratio was generated and converted to milliBRET units with background correction using the formula: [(Acceptorsample/Donorsample−(Acceptorno tracer control/Donorno tracer control)]×1000. The mBU data was plotted as a function of compound concentration and IC50s for BRET assay were determined by nonlinear regression analysis of concentration response curves using the Collaborative Drug Discovery Vault software. The fold-selectivity was calculated by dividing the IC50 for BRD4 BD1 by the IC50 for BRD4 BD2.

[2] = Plasma stability assay, mouse plasma; assay type: in vitro ADME; conditions: Method 1 (5 μM)
Procedure: From stock solution of compound in 10 mM DMSO, a working solution of 1 mM is prepared by diluting the compound in DMSO. To 398 μL of plasma pre-warmed at 37° C. for 15 minutes), 2 μL of working solution of compound is added, resulting in a final concentration of 5 μM (0.5% DMSO) for the compound. The sample is then incubated at 37° C. Aliquot is withdrawn at specified time-points (0, 15, 30, 60 and 120 mins). The reaction is stopped by addition of 450 μL cold acetonitrile containing internal standard (IS). […] Aliquots of the supernatant is analysed using LC-MS/MS. The percent remaining of the compound at each time point is calculated with respect to the control sample (0 min time-point).
A working solution of compound (500 μM) is prepared in DMSO (100%). To 735 μL of plasma, 15 μL of working solution of compound is added—resulting in a final concentration of 10 μM (2% DMSO) for the compound. The sample is then incubated at 37° C. Aliquot is withdrawn at time-points—0, 15, 30, 60, 90 and 120 mins. The reaction is stopped by using chilled acetonitrile containing internal standard (IS). The samples are centrifuged and the supernatants analyzed using LC-MS/MS. The percent remaining of the compound at each time point is calculated with respect to the control sample (0 min time-point).

[3] = Beagle dog PK study 2 of Example 101 (HPβCD based formulation, IV), with clinical observations; assay type: in vivo; conditions: for concentration at 0.083 h / concentration at 0.25 h / concentration at 0.5 h / concentration at 1 h / concentration at 2 h / concentration at 4 h / concentration at 8 h / concentration at 24 h / AUC(0-inf) / AUC(0-t) / C0 / half-life / MRT inf / Vd: beagle, dog, plasma, iv, 1 mg/kg; for MRT inf: read-out: MRTInf—obs; for Vd: read-out: Vss—obs
Procedure: The purpose of this study was to examine the pharmacokinetics of Example 101 in beagle dogs. […] An oral PK study was also undertaken in Lewis rats—see Experimental Method C.
Body weight was recoded prior to dosing, and detailed clinical observations were made prior to dosing and throughout the study, as needed.
78.646 mL of HPβCD (20% solution w/v) was then added with vortex and sonication.
Blood samples (˜0.3 mL) were collected according to a schedule (shown below) by venipuncture of peripheral veins except for the dosing vein, and EDTA-K2 was used as anticoagulant. Within 30 minutes of collection, the samples were centrifuged at approximately 2000×g for 10 minutes at 4° C. to obtain blood plasma. The plasma samples were immediately divided into two aliquots (˜75 μL each), transferred to a cryogenic vial, and stored in a freezer at ˜75±15° C. prior to analysis.
Blood samples were collected at 0.083, 0.25, 0.5, 1, 2, 4, 8, and 24 h following the initial dosing (0 h).
The experiments were conducted on a Shimadzu DGU-20A5R and AB API 5500+LC/MS/MS instrument with an Agilent Poroshell EC-C18 4 μm (50×2.1 mm) column. A gradient of 95% water (0.1% formic acid)/95% acetonitrile (0.1% formic acid) was used as the mobile phase. The sample injection volume was 1 μL, and the flow rate was 0.6 mL/min. The gathered data were used for pharmacokinetic calculations using T½, C0, AUClast, AUCinf, MRTinf, CI, Vss, and Number of Points for Regression as parameters.

[4] = beagle dogs, IV, 0.5 mg/mL in HPβCD based formulation, PK study 2
[5] = dog PK study 2, IV 1 mg/kg, HPβCD, Test Animal 1, read-out: Plasma concentration
[6] = dog PK study 2, IV 1 mg/kg, HPβCD, Test Animal 2, read-out: Plasma concentration
[7] = dog PK study 2, IV 1 mg/kg, HPβCD, Test Animal 3, read-out: Plasma concentration
[8] = dog PK study 2, IV 1 mg/kg, HPβCD, mean, read-out: Average plasma concentration, Mean
[9] = dog PK study 2, IV 1 mg/kg, HPβCD, Test Animal 1
[10] = dog PK study 2, IV 1 mg/kg, HPβCD, Test Animal 2
[11] = dog PK study 2, IV 1 mg/kg, HPβCD, Test Animal 3
[12] = dog PK study 2, IV 1 mg/kg, HPβCD, mean

CNC(=O)c1[nH]c(C(=O)NC2CCC2)cc1O[C@@H](C)c1ccccc1 (stereo in doubt) [Example 101, N^5-cyclobutyl-N^2-methyl-3-(1-phenylethoxy)-1H-pyrrole-2,5-dicarboxamide]
IC50 [1]: ≥ 10 µM | Plasma Stability (% remaining at 120 minutes), Mouse [2]: >99% | clinical observations [3, 4]: soft feces 8 hours after administration; also recorded: No other clinical observations were made; also recorded: fewer clinical observations in response to Example 101 when prepared in HPβCD | plasma concentration as a function of time (FIGS. 1D-1E) [3, 4]: Plasma concentrations decreased similarly over the first 2 h post-administration | concentration at 0.083 h [3, 5]: 1270 ng/mL | concentration at 0.083 h [3, 6]: 1460 ng/mL | concentration at 0.083 h [3, 7]: 1580 ng/mL | concentration at 0.083 h [3, 8]: 1440 ng/mL | concentration at 0.25 h [3, 5]: 721 ng/mL | concentration at 0.25 h [3, 6]: 820 ng/mL | concentration at 0.25 h [3, 7]: 985 ng/mL | concentration at 0.25 h [3, 8]: 842 ng/mL | concentration at 0.5 h [3, 5]: 322 ng/mL | concentration at 0.5 h [3, 6]: 498 ng/mL | concentration at 0.5 h [3, 7]: 702 ng/mL | concentration at 0.5 h [3, 8]: 507 ng/mL | concentration at 1 h [3, 5]: 187 ng/mL | concentration at 1 h [3, 6]: 140 ng/mL | concentration at 1 h [3, 7]: 320 ng/mL | concentration at 1 h [3, 8]: 216 ng/mL | concentration at 2 h [3, 5]: 49.3 ng/mL | concentration at 2 h [3, 6]: 54.1 ng/mL | concentration at 2 h [3, 7]: 159 ng/mL | concentration at 2 h [3, 8]: 87 ng/mL | concentration at 4 h [3, 5]: 4.83 ng/mL | concentration at 4 h [3, 6]: 10.8 ng/mL | concentration at 4 h [3, 7]: 42.1 ng/mL | concentration at 4 h [3, 8]: 19.2 ng/mL | concentration at 8 h [3, 5]: 0 ng/mL | concentration at 8 h [3, 6]: 2.5 ng/mL | concentration at 8 h [3, 7]: 6.58 ng/mL | concentration at 8 h [3, 8]: 3.03 ng/mL | concentration at 24 h ([3]; dog PK study 2, IV 1 mg/kg, HPβCD, 24 h, Test Animal 1): 0 ng/mL | concentration at 24 h ([3]; dog PK study 2, IV 1 mg/kg, HPβCD, 24 h, Test Animal 2): 0 ng/mL | concentration at 24 h ([3]; dog PK study 2, IV 1 mg/kg, HPβCD, 24 h, Test Animal 3): 0 ng/mL | AUC(0-inf) [3, 9]: 723 ng·h/mL | AUC(0-t) [3, 9]: 719 ng·h/mL | C0 [3, 9]: 1680 ng/mL | half-life [3, 9]: 34.4 min | MRT inf [3, 9]: 36.4 min | Vd [3, 9]: 0.838 L/kg | AUC(0-inf) [3, 10]: 850 ng·h/mL | AUC(0-t) [3, 10]: 844 ng·h/mL | C0 [3, 10]: 1940 ng/mL | half-life [3, 10]: 84.6 min | MRT inf [3, 10]: 45.1 min | Vd [3, 10]: 0.886 L/kg | AUC(0-inf) [3, 11]: 1380 ng·h/mL | AUC(0-t) [3, 11]: 1370 ng·h/mL | C0 [3, 11]: 2000 ng/mL | half-life [3, 11]: 79.8 min | MRT inf [3, 11]: 72 min | Vd [3, 11]: 0.868 L/kg | AUC(0-inf) [3, 12]: 984 ng·h/mL | AUC(0-t) [3, 12]: 977 ng·h/mL | C0 [3, 12]: 1880 ng/mL | half-life [3, 12]: 66 min | MRT inf [3, 12]: 51 min | Vd [3, 12]: 0.864 L/kg | Average plasma concentration, Mean ([3]; dog PK study 2, IV 1 mg/kg, HPβCD, 24 h, mean): BLOQ | AUClast/D [3, 9]: 719 (ng · h/mL)/(mg/kg) | AUC—% Extrap—obs [3, 9]: 0.552% | Cl_obs [3, 9]: 23.1 mL/min/kg | AUClast/D [3, 10]: 844 (ng · h/mL)/(mg/kg) | AUC—% Extrap—obs [3, 10]: 0.599% | Cl_obs [3, 10]: 19.6 mL/min/kg | AUClast/D [3, 11]: 1367 (ng · h/mL)/(mg/kg) | AUC—% Extrap—obs [3, 11]: 0.915% | Cl_obs [3, 11]: 12.1 mL/min/kg | AUClast/D [3, 12]: 977 (ng · h/mL)/(mg/kg) | AUC—% Extrap—obs [3, 12]: 0.689% | Cl_obs [3, 12]: 18.3 mL/min/kg
